In US9295671B2, “Benzenesulfonamide derivatives of quinoxaline, pharmaceutical compositions thereof, and their use in methods for treating cancer” (NEUPHARMA, INC., priority 2011, dated 2016) one finds inhibition and IC50 data, which are given here for 15 compounds.

What is called inhibition is the percentage by which the read-out fell short of the control. One may read the pIC50 as the negative decadic logarithm of the IC50, by convention in mol/L.

The target of experiment [1] is T1, BRAF (Homo sapiens, UniProt P15056).
T1 construct: purchased Invitrogen
T1 sequence (P15056 whole entry): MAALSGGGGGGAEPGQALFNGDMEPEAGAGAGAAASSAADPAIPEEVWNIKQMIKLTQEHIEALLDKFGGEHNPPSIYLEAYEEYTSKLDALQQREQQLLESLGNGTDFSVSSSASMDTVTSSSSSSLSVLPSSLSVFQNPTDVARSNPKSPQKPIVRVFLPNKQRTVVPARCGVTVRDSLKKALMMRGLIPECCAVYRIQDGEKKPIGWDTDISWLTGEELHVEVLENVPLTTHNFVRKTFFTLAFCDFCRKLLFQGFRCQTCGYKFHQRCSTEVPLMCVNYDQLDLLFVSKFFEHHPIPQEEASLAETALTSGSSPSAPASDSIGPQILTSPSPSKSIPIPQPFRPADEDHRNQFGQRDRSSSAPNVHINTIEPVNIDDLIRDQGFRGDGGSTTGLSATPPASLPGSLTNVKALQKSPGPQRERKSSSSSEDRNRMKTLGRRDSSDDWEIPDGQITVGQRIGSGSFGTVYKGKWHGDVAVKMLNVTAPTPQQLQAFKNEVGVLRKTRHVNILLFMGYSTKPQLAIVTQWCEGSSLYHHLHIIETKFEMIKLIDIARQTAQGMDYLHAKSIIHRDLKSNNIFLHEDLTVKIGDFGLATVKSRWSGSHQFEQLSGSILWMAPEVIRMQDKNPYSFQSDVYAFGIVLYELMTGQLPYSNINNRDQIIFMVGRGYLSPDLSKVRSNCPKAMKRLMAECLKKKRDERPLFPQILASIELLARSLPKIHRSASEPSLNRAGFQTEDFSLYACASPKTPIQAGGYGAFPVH
The experiment can be described thus: Z′-LYTE kinase assay, BRAF (Invitrogen). The format is biochemical. Conditions: Z′-LYTE method. The method, then:
(§1) Inhibitory activities of compounds against BRAF or BRAF V600E were measured by Invitrogen using Z′-LYTE® Method as briefly described in the following.
(§2) 4× Test compounds are dissolved in 1% DMSO. […] ATP solutions are diluted to a 4×ATP working concentration in Kinase Buffer (50 mM HEPES pH 7.5, 0.01% BRIJ-35, 10 mM MgCl2, 1 mM EGTA).
(§3) Reaction starts by 30-second shaking of mixture consisting of 2.5 μL4× test compound, […] and 2.5 μL 4×ATP Solution on Bar-coded Corning, low volume NBS, black 384-well plate (Corning Cat. #3676). Then the mixture is incubated for 60-minute at room temperature for the kinase reaction, followed by addition of 5 μL of a 1:1024 dilution of development reagent A and 30-second plate shake. The mixture is then incubated for another 60-minute at room temperature for development reaction. Finally fluorescence is read by plate reader.

In experiment [2] the target is T2, BRAF V600E (Homo sapiens, UniProt P15056, V600E).
T2 construct: purchased Invitrogen
T2 sequence (P15056 whole entry V600E): as the sequence (P15056 whole entry) above, with V600E counted along it
The experiment can be described thus: Z′-LYTE kinase assay, BRAF V600E (Invitrogen). The format is biochemical. The settings on record: Z′-LYTE method. The method, then:
as §1, §2, §3

For the next experiment, the system named is A549 cells. The experiment can be described thus: Inhibition of cancer cell growth, MTT assay, A549. The format is cell-based. Conditions: Homo sapiens, 72 h. The method, then: (§4) Inhibition of cell growth by compounds was measured using MTT assay (Mosmann, T., Journal of Immunological Methods, 1983, 65, 55-63). Tumor cell lines were purchased from ATCC (American Type Culture Collection, Manassas, Va.). All cell lines were maintained in RPMI 1640 (Hyclone) supplemented with 10% fetal bovine serum (FBS, Hyclone), glutamine (2 mM, Hyclone), and antibiotics (penicillin 100 U/mL and streptomycin 50 μg/mL) at 37° C. in a humidified atmosphere of 5% CO2 in air. Taxol (as a positive control, Sigma) and compounds were dissolved in DMSO (Sigma), and the final concentration of DMSO in the medium was 1%. Tumor cells were plated in 96-well plates at densities of about 4000 cells/well of a 96-well plate and allowed to adhere/grow for 24 h. They were then treated with various concentrations of drug for 72 h. 3-(4,5-Dimethylthiazol-2-yl)-2,5-diphenyltetrazolium bromide (MTT, Sigma) was used to determine the number of viable cells at the time of compound addition and the number of cells remaining after 72 h compound exposure. The number of cells remaining after 72 h was compared to the number of viable cells at the time of compound addition by measuring the absorbance at 570 nm, allowing for the calculation of growth inhibition.
(§5) All concentrations of compounds were tested in triplicate and controls were averaged over 4 wells. IC50 was calculated by plotting the concentration of compound vs the percentage of inhibition in treated wells using GraphPad Prism 5.
(§6) The scale utilized in Table 4 is as follows: +++ less than 500 nM; ++ between 500 nM and 1 μM; and + greater than 1 μM.
For orientation: Formazan colour is commonly taken as a measure of viable cells.

In a further experiment the test system is A375 cells. The experiment can be described thus: Inhibition of cancer cell growth, MTT assay, A375. The format is cell-based. Conditions: Homo sapiens, A-375, 72 h (Table 4). The method, then:
as §4, §5, §6

For experiment [3], the target named is T1, BRAF. The experiment can be described thus: LanthaScreen kinase assay, BRAF. Type of experiment: biochemical. Conditions: ATP 1 μM. The method, then: (§7) The inhibitory activities of compounds against BRAF or BRAF V600E protein were measured using Invitrogne's LanthaScreen™ kinase assay which is based on fluorescein-labeled MAP2K1 as a substrate. The assay procedure is described as follows.
(§8) The scale utilized in Table 3 is as follows: ++++ less than 50 nM; +++ between 50 and 100 nM; ++ between 100 nM and 1 μM; and + greater than 1 μM.

Experiment [4] deals with T2, BRAF V600E. The experiment can be described thus: LanthaScreen kinase assay, BRAF V600E. The format is biochemical. The settings on record: ATP 10 μM. The method, then: as §7, §8
(In general: Time-resolved FRET reads energy transfer from a long-lived donor to a nearby acceptor.)

pIC50: −log10 of the molar value.

Take `CCCS(=O)(=O)Nc1ccc(F)c(C(=O)c2ccc3nccnc3c2)c1F` [Compound C01, N-(2,4-difluoro-3-(quinoxaline-6-carbonyl)phenyl)propane-1-sulfonamide]: the inhibition at 1 µM against BRAF [1] is 70 to 89%; on BRAF V600E [2], greater than 89%. Further, the pIC50 in the experiment on A549 cells and in the experiment with A375 cells was greater than 6.30 throughout.
For the compound `CCCS(=O)(=O)Nc1ccc(F)c(C(=O)c2ccc3ncc(-c4ccc(Cl)cc4)nc3c2)c1F` [Compound C02, N-(3-(3-(4-chlorophenyl)quinoxaline-6-carbonyl)-2,4-difluorophenyl)propane-1-sulfonamide], the inhibition at 1 µM was 70 to 89% against BRAF [1] and greater than 89% against BRAF V600E [2]. Further, the pIC50 with A549 cells and with A375 cells was 6.00 to 6.30 in each case.
As to `CCCS(=O)(=O)Nc1ccc(F)c(C(=O)c2ccc3ncc(OC)nc3c2)c1F` [Compound C03, N-(2,4-difluoro-3-(3-methoxyquinoxaline-6-carbonyl)phenyl)propane-1-sulfonamide], the inhibition at 1 µM was 70 to 89% against BRAF [1] and greater than 89% on BRAF V600E [2]. Moreover, the negative-log IC50 (pIC50) in the experiment on A549 cells and in the experiment on A375 cells was less than 6.00 throughout.
For the compound `CCCS(=O)(=O)Nc1ccc(F)c(C(=O)c2ccc3ncc(C#N)nc3c2)c1F` [Compound C05, N-(3-(3-cyanoquinoxaline-6-carbonyl)-2,4-difluorophenyl)propane-1-sulfonamide], the inhibition at 1 µM on BRAF [1] is 70 to 89%; against BRAF V600E [2], greater than 89%. Moreover, the negative logarithm of the IC50 (pIC50) in the experiment with A549 cells is greater than 6.30; in the experiment on A375 cells, 6.00 to 6.30.
Consider `CCCS(=O)(=O)Nc1cc(F)c(F)c(C(=O)c2ccc3nccnc3c2)c1` [Compound C07, N-(3,4-difluoro-5-(quinoxaline-6-carbonyl)phenyl)propane-1-sulfonamide], for which the inhibition at 1 µM against BRAF [1] is less than 70%; against BRAF V600E [2] it was 70 to 89%. For the same compound, the pIC50 with A549 cells is less than 6.00; in the experiment with A375 cells it was 6.00 to 6.30.
With `CCCS(=O)(=O)Nc1cc(F)c(SC)c(C(=O)c2ccc3nccnc3c2)c1F` [Compound C08, N-(2,5-difluoro-4-(methylthio)-3-(quinoxaline-6-carbonyl)phenyl)propane-1-sulfonamide], the inhibition at 1 µM on BRAF [1] and on BRAF V600E [2] was less than 70% throughout. Moreover, the pIC50 in the experiment on A549 cells and in the experiment on A375 cells was less than 6.00 throughout.
Regarding `CCCS(=O)(=O)Nc1cc(F)c(F)c(C(=O)c2ccc3ncc(OC)nc3c2)c1F` [Compound C10, N-(2,4,5-trifluoro-3-(3-methoxyquinoxaline-6-carbonyl)phenyl)propane-1-sulfonamide], the inhibition at 1 µM against BRAF [1] was greater than 89%; against BRAF V600E [2], 70 to 89%. For the same compound, the pIC50 with A549 cells was less than 6.00; in the experiment with A375 cells, greater than 6.30.
Regarding `CCCS(=O)(=O)Nc1cc(F)c(F)c(C(=O)c2ccc3ncc(Cl)nc3c2)c1F` [Compound C11, N-(3-(3-chloroquinoxaline-6-carbonyl)-2,4,5-trifluorophenyl)propane-1-sulfonamide], the figures for the inhibition at 1 µM against BRAF [1] and on BRAF V600E [2] were 70 to 89% and greater than 89%, respectively. The pIC50 with A549 cells and in the experiment on A375 cells was less than 6.00 each time.
Turning to `CCCS(=O)(=O)Nc1cc(F)c(F)c(C(=O)c2ccc3ncc(N(C)CCN(C)C)nc3c2)c1F` [Compound C13, N-(3-(3-((2-(dimethylamino)ethyl)(methyl)amino)quinoxaline-6-carbonyl)-2,4,5-trifluorophenyl)propane-1-sulfonamide], the inhibition at 1 µM on BRAF [1] and at BRAF V600E [2] was greater than 89% in each case. Moreover, the negative-log IC50 (pIC50) with A549 cells and in the experiment on A375 cells was less than 6.00 each time.
As to `CCCS(=O)(=O)Nc1cc(F)c(F)c(C(=O)c2ccc3nccnc3c2)c1Cl` [Compound C14, N-(2-chloro-4,5-difluoro-3-(quinoxaline-6-carbonyl)phenyl)propane-1-sulfonamide], the inhibition at 1 µM was greater than 89% against BRAF [1] and 70 to 89% against BRAF V600E [2]. Further, the pIC50 in the experiment with A549 cells was less than 6.00; in the experiment with A375 cells, greater than 6.30.
For `CCCS(=O)(=O)Nc1ccc(F)c(C(=O)c2ccc3nccnc3c2)c1` [Compound C15, N-(4-fluoro-3-(quinoxaline-6-carbonyl)phenyl)propane-1-sulfonamide], the inhibition at 1 µM against BRAF V600E [2] was less than 70%. In addition, the pIC50 with A549 cells and with A375 cells was less than 6.00 each time.
With `CCCS(=O)(=O)Nc1cc(F)cc(C(=O)c2ccc3nccnc3c2)c1` [Compound C16, N-(3-fluoro-5-(quinoxaline-6-carbonyl)phenyl)propane-1-sulfonamide], the inhibition at 1 µM on BRAF V600E [2] is less than 70%. Moreover, the pIC50 in the experiment with A549 cells and in the experiment with A375 cells was less than 6.00 in each case.
The compound `CCCS(=O)(=O)Nc1ccc(F)c(C(=O)c2ccc3ncc(N4CCOCC4)nc3c2)c1` [Compound C17, N-(4-fluoro-3-(3-morpholinoquinoxaline-6-carbonyl)phenyl)propane-1-sulfonamide] came in with an inhibition at 1 µM against BRAF V600E [2] of less than 70%. Also, the pIC50 with A549 cells and in the experiment with A375 cells was less than 6.00 each time.
With `CCCS(=O)(=O)Nc1cc(F)cc(C(=O)c2ccc3ncc(N4CCOCC4)nc3c2)c1` [Compound C18, N-(3-fluoro-5-(3-morpholinoquinoxaline-6-carbonyl)phenyl)propane-1-sulfonamide], the inhibition at 1 µM against BRAF V600E [2] was less than 70%. For the same compound, the pIC50 on BRAF [3] was 7.00 to 7.30; against BRAF V600E [4], greater than 7.30; in the experiment on A549 cells, less than 6.00; with A375 cells it was less than 6.00.
The compound `CCCS(=O)(=O)Nc1cc(F)c(F)c(C(=O)c2ccc3ncc(N4CCOCC4)nc3c2)c1` [Compound C37, N-(3,4-difluoro-5-(3-morpholinoquinoxaline-6-carbonyl)phenyl)propane-1-sulfonamide] displayed an inhibition at 1 µM at BRAF V600E [2] of 70 to 89%. Further, the negative-log IC50 (pIC50) against BRAF [3] was 6.00 to 7.00; on BRAF V600E [4], 7.00 to 7.30; in the experiment with A549 cells, less than 6.00; with A375 cells, less than 6.00.
